In patent US10676754B2, “Compositions and methods for producing plants resistant to glyphosate herbicide” (E I DU PONT DE NEMOURS AND COMPANY, priority 2014, dated 2020):

Columns and labels:
maize plants = assay: Glyphosate spray test on maize plants at V3 growth stage; type: in vivo
Protocol: TO plants grew well in the greenhouse and were fertile. A sample of TO plants was sprayed with a 1× dose of glyphosate at V3 growth stage using the spray booth setting of 20 gallons per acre. The 1× dose of glyphosate was prepared as follow: 2.55 ml Powermax in 300 ml water (active ingredient: glyphosate, N-(phosphonomethyl) glycine, in the form of its potassium salt at 48.7%). […] This TO plant was designated as hemizygous at the epsps locus.
A random sample of the F1 plants progeny of the E1 and E2 parental plants) was sprayed with 2.55 ml Powermax (glyphosate solution) in 300 ml water at the setting of 20 gallons per acre at the V3 stage of growth.

F2 maize embryos = assay: Embryo rescue: germination of F2 embryos on rooting media containing glyphosate; type: in vivo
Protocol: For embryo rescue of the F2 progeny seedlings from selfed F1 plants, ears were harvested 18 days after pollination and sterilized in 20:80 bleach/water mix. Embryos were excised and placed on rooting media (272V—4.3 g/L Murashige and Skoog basal salt mixture, 5.0 ml/L MS vitamins stock solution, 100 mg/L mio-inositol, 40 g/L sucrose, 6 g/L Bacto Agar) with or without glyphosate at 0.1 mM, 0.5 mM, 1 mM, 3 mM concentration. They were transferred to a light room at 26° C. and allowed to germinate for 7 days. Embryos containing the wild-type EPSPS alleles, hemizygous and homozygous for the epsps-TIPS allele germinated on media without glyphosate. […] The presence of the epsps-TIPS allele in the analyzed seedlings is indicated as “positive” or “negative”, while the wild-type EPSPS allele copy number is indicated in the columns to the right (Table 14)

[1] = system: artificial I-SceI recognition site in maize genome; conditions: analyzed F1 plants, transgenic nuclease introduced by crossing and activated by gene excision; cited from earlier work
[2] = epsps-TIPS-containing F1 plants after spray

O=C(O)CNCP(=O)(O)O [glyphosate, N-phosphonomethylglycine]
survival of plants (maize plants; F1 plants containing the epsps-TIPS edited allele, 2.55 ml Powermax in 300 ml water, 20 gallons per acre, V3): survived | leaf tissue damage (maize plants; F1 plants without the epsps-TIPS allele, 2.55 ml Powermax in 300 ml water, 20 gallons per acre, V3): severe leaf tissue damage | leaf tissue damage (maize plants; T0 plants hemizygous for epsps-TIPS alleles, 1× dose, V3, 20 gallons per acre, seven days after application): no leaf tissue damage | growth of plants (maize plants; [2]): slowed down | leaf symptoms over time (maize plants; [2]): bleached sectors of the leaf tissue on newly emerging leaves | leaf tissue damage (maize plants; one T0 plant hemizygous at the epsps locus, 1× dose, 14 days after application): no damage to the leaf tissue | leaf tissue damage (maize plants; other T0 plantlets, 1× dose, V3, 20 gallons per acre, seven days after application): severely damaged | tolerance of plants (maize plants; some epsps-TIPS edited maize T0 plants, 1× dose): some level of tolerance | green seedling production (F2 maize embryos; 0.1 mM in rooting media, 7 days, 26° C., F2 embryos): only embryos containing the epsps-TIPS alleles produced green seedlings | wild-type seedlings among germinating embryos (F2 maize embryos; 0.1 mM or any other concentration up to 3 mM in media): No wild-type seedlings were detected | green seedling production (F2 maize embryos; embryos homozygous for the epsps-TIPS allele, 1.0 mM): produced green seedlings | green seedling production (F2 maize embryos; hemizygous embryos, 1.0 mM): did not

B1: I-SceI: wild type yeast I-SceI homing nuclease (protein, UniProt P03882 1-235, looked up)
Intron-encoded endonuclease …: MKNIKKNQVMNLGPNSKLLKEYKSQLIELNIEQFEAGIGLILGDAYIRSRDEGKTYCMQFEWKNKAYMDHVCLLYDQWVLSPPHKKERVNHLGNLVITWGAQTFKHQAFNKLANLFIVNNKKTIPNNLVENYLTPMSLAYWFMDDGGKWDYNKNSTNKSIVLNTQSFTFEEVEYLVKGLRNKFQLNCYVKINKNKPIIYIDSMSYLIFYNLIKPYLIPQMMYKLPNTISSETFLK
plants with mutations of the recognition sequence [1]: 1%
